Source: the NIST ThermoML archive (doi:10.1021/je1002434)
± gives the expanded uncertainty stated by the source.

Columns and labels:
[1] = for surface tension liquid-gas: Maximal bubble pressure; for mass density: 101 kPa, Liquid, Buoyancy - hydrostatic balance with magnetic suspension - one sinker
[2] = wn = mass fraction of the nth substance listed; settings: for surface tension liquid-gas: Maximal bubble pressure; for mass density: 101 kPa, Liquid, Buoyancy - hydrostatic balance with magnetic suspension - one sinker

CCCn1cc[n+](C)c1.N[C@@H](CCC(=O)O)C(=O)[O-]
[1]
Settings | mass density [kg/m3] | surface tension liquid-gas [mN/m]
298.15 K | 1229.2 ± 0.6 | 60.8 ± 0.5
318.15 K | 1218.6 ± 0.6 | 54.7 ± 0.4
323.15 K | 1215.9 ± 0.6 | 53.2 ± 0.4
328.15 K | 1213.2 ± 0.6 | 51.8 ± 0.4
333.15 K | 1210.6 ± 0.6 | 50.1 ± 0.4
338.15 K | 1208.2 ± 0.6 | 48.7 ± 0.4
343.15 K | 1205.3 ± 0.6 | –

CCCn1cc[n+](C)c1.N[C@@H](CCC(=O)O)C(=O)[O-] + O
[2]
Settings | mass density, w2 = 0.00841 [kg/m3] | mass density, w2 = 0.01002 [kg/m3] | mass density, w2 = 0.01126 [kg/m3] | mass density, w2 = 0.01281 [kg/m3] | mass density, w2 = 0.01404 [kg/m3] | surface tension liquid-gas, w2 = 0.0089 [mN/m] | surface tension liquid-gas, w2 = 0.012 [mN/m] | surface tension liquid-gas, w2 = 0.0151 [mN/m] | surface tension liquid-gas, w2 = 0.0192 [mN/m] | surface tension liquid-gas, w2 = 0.0222 [mN/m]
318.15 K | 1204.8 ± 0.6 | 1202 ± 0.5 | 1200.3 ± 0.5 | 1197.4 ± 0.5 | 1195.6 ± 0.5 | 55.2 ± 0.5 | 55.4 ± 0.5 | 55.5 ± 0.5 | 55.7 ± 0.5 | 56 ± 0.5
323.15 K | 1202.2 ± 0.5 | 1199.3 ± 0.5 | 1197.6 ± 0.5 | 1194.7 ± 0.5 | 1193 ± 0.5 | 53.8 ± 0.5 | 54 ± 0.5 | 54.2 ± 0.5 | 54.4 ± 0.5 | 54.7 ± 0.5
328.15 K | 1199.5 ± 0.5 | 1196.7 ± 0.5 | 1195 ± 0.5 | 1192 ± 0.5 | 1190.4 ± 0.5 | 52.5 ± 0.5 | 52.6 ± 0.5 | 52.8 ± 0.5 | 53.1 ± 0.5 | 53.4 ± 0.5
333.15 K | 1196.9 ± 0.5 | 1194 ± 0.5 | 1192.3 ± 0.5 | 1189.4 ± 0.5 | 1187.7 ± 0.5 | 50.7 ± 0.5 | 51.2 ± 0.5 | 51.4 ± 0.5 | 51.7 ± 0.5 | 51.9 ± 0.5
338.15 K | 1194.3 ± 0.5 | 1191.4 ± 0.5 | 1189.6 ± 0.5 | 1186.7 ± 0.5 | 1185 ± 0.5 | 49.4 ± 0.5 | 49.9 ± 0.5 | 50.2 ± 0.5 | 50.4 ± 0.5 | 50.7 ± 0.5
343.15 K | 1191.6 ± 0.5 | 1188.7 ± 0.5 | 1187 ± 0.5 | 1184.1 ± 0.5 | 1182.4 ± 0.5 | – | – | – | – | –
